The source of these data is US12139617B2, “Polymeric fluorophores, compositions comprising the same, and methods of preparing and using the same” (North Carolina State University, priority 2017, dated 2024).

The nature of series [1]: Absorption and emission spectra of copolymers F1-F3 and fluorophores D1-D3. It counts as physicochemical. The text has this:
The target dye-loaded copolymers F1-F3 were then subject to investigations of their spectroscopic properties in both organic solvents and aqueous solution. […] Attaching to the 120-kDa amphiphilic copolymer drastically enhances the water solubility of BODIPY D1 and chlorin D2 without strong perturbation on the spectroscopic properties. Emission band for F1 and F2 in water remains the same as the ones measured in organic solutions, showing minimal dye-dye interaction is involved in aqueous solution of F1 and F2 at μM concentration. […] This negative result may be because of the inappropriate size of the copolymer backbone. Polymer larger in size may be required to encapsulate large hydrophobic fluorophores like the phthalocyanine D3.
All chemicals obtained commercially were used as received unless otherwise noted. Reagent-grade solvents (CH2Cl2, THF, methanol) and HPLC-grade water were used as received. NMR data was measured in a solution of CDCl3 unless otherwise noted. Noncommercial compounds 1, 2, and 4 were prepared following literature procedures. […] Samples were detected with Agilent 1260 infinity refractive index detector. Absorption spectra were measured on Agilent 8453 and Shimadzu UV1800 instruments using dilute (μmolar) solutions of the compound in UV transparent (e.g., quartz) cuvettes versus a solvent blank at room temperature.

The nature of series [2]: Fluorescence quantum yield of F1-F3 and D1-D3. It counts as physicochemical. The source says:
[…] […] These comparisons indicate the absence of dye-dye quenching resulting from the aggregation for F1 and F2 in μM aqueous solutions. […] Also, a smaller phthalocyanine skeleton (e.g. with methyl instead of heptyl as peripheral groups) may be encapsulated with the current length of copolymer successfully.

In the case of `CCCCCCCc1cc2c(cc1CCCCCCC)-c1nc-2nc2[nH]c(nc3nc(nc4[nH]c(n1)c1cc(CCCCCCC)c(CCCCCCC)cc41)-c1cc(C#Cc4ccc(CC(=O)NN)cc4)ccc1-3)c1cc(CCCCCCC)c(CCCCCCC)cc21` [Compound D3, 2-[4-(N-Aminocarbamoyl)methylphenylethynyl]-9,10,16,17,23,24-hexaheptylphthalocyanine], the absorption wavelength in series [1] was found to be 700 nm. In addition, the “Φf (fluorescence quantum yield)” value in series [2] (Toluene) was 0.68.

As to `Cc1cc(C)c(-c2c3nc(c(-c4ccc(C(=O)NN)cc4)c4ccc(cc5nc(cc6ccc2[nH]6)CC5(C)C)[nH]4)C=C3)c(C)c1` [Compound D2, 5-[4-(N-Aminocarbamoyl)phenyl]-10-Mesityl-18,18-dimethylchlorin], the absorption wavelength in series [1] stood at 640 nm. In addition, the “Φf (fluorescence quantum yield)” value in series [2] (CH2Cl2) is listed as 0.19.
